Tests used:
JAK3 enzyme = biological target: T1, JAK3 enzyme (Homo sapiens, UniProt P52333); test: JAK Caliper Enzyme Assay at 4 μM ATP; assay type: biochemical
T1 sequence (P52333 1-1124): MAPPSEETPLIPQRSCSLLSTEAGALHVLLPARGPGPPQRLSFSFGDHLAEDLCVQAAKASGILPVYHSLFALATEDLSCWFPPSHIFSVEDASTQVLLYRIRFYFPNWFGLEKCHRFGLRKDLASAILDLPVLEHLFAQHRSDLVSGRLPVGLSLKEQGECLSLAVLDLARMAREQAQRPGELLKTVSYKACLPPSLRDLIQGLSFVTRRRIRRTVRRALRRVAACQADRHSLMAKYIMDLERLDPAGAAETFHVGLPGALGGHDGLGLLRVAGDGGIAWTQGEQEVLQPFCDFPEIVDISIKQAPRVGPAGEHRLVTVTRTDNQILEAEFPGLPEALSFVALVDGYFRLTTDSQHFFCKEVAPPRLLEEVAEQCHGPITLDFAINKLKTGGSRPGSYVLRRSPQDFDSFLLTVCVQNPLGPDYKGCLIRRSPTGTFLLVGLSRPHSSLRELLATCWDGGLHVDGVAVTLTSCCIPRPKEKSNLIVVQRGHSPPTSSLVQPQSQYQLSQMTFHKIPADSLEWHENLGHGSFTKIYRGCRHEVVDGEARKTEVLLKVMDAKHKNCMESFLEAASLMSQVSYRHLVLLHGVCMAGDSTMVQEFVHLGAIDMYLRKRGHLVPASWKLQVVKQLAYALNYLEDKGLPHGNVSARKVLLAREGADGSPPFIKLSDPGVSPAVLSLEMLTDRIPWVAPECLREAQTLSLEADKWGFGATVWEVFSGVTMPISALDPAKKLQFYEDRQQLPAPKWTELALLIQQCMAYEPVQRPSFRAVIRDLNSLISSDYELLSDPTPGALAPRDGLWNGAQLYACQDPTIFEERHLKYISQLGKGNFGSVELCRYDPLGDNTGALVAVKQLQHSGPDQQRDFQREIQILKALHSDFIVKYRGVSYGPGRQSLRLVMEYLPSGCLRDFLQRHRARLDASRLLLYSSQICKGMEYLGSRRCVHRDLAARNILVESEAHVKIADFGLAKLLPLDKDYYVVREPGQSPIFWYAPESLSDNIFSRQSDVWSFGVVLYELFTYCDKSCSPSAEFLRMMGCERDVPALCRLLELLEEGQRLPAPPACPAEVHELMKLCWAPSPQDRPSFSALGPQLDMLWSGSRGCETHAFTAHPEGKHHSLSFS
How it was run: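 Test compounds were diluted in DMSO as an 11-point half-log series from a 600 μM top concentration (DMSO series, not final assay level). Enzyme amount and incubation time were set per enzyme prep to reach 20%-30% phosphorylation. Phosphorylated and unphosphorylated peptide were resolved by microfluidic separation.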

[1] = Stability of JAK3 Covalent Inhibitors in Human Whole Blood; assay type: in vitro ADME; conditions: both sexes, 1 μM test compound, 37° C., 180 min incubation, read-out: Human blood stability t1/2
How it was run: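 Compound at 1 μM final incubated in duplicate at 37° C for 180 min in fresh K2-EDTA whole blood […]. Samples quenched in acetonitrile with internal standard; LC-MS/MS peak area ratios gave % parent remaining over time.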

[2] = test system: IL-15 induced STAT5 phosphorylation in human whole blood lymphocytes; test: HWB IL-15 Induced STAT5 Phosphorylation Assay; assay type: cell-based; conditions: Lymphocyte, IL-15 final 50 ng/ml, read-out: HWB_IL15 pSTAT5 IC50
How it was run: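 Heparinised human whole blood preincubated with compound (0.2% DMSO final) 45 min at 37° C, then stimulated with human IL-15 (50 ng/ml final) for 15 min. After lyse/fix and Perm Buffer III permeabilisation, stained overnight at 4° C with AlexaFluor647 anti-phospho-STAT5; read by flow cytometry gated on total lymphocytes.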

Structure (SMILES)	IC50 (JAK3 enzyme) [nM]	half-life at 1 μM [1] [h]	IC50 [2] [nM]
C=CC(=O)N1CC[C@@H](Oc2cnc3[nH]cc(C(=O)N[C@@H](C)COC)c3n2)C[C@@H]1C (single isomer, unassigned) [Example 73]	0.971	> 6	738
C=CC(=O)N1CCC(Nc2cnc3[nH]cc(C(=O)NCc4ccccc4F)c3n2)CC1 [Example 196, 2-[(1-acryloylpiperidin-4-yl)amino]-N-(2-fluorobenzyl)-5H-pyrrolo[2,3-b]pyrazine-7-carboxamide]	0.479	> 6	362
C=CC(=O)N1C[C@@H](CF)C[C@@H](Nc2ncnc3[nH]ccc23)C1 (single isomer, unassigned) [Example 103]	0.424	2.28	659
C=CC(=O)N1CC[C@@H](Nc2cnc3[nH]cc(C(=O)NCC)c3n2)[C@@H](C)C1 (single isomer, unassigned) [Example 38]	0.328	4.38	1160
C=CC(=O)N1CCC(N(C)c2cnc3[nH]cc(C(=O)NC(C)C)c3n2)CC1 [Example 64, 2-[(1-acryloylpiperidin-4-yl)(methyl)amino]-N-(propan-2-yl)-5H-pyrrolo[2,3-b]pyrazine-7-carboxamide]	0.408	4.42	3130
C=CC(=O)N1CCC(Nc2cnc3[nH]cc(C(=O)NCC4CC4)c3n2)CC1 [Example 172, 2-[(1-acryloylpiperidin-4-yl)amino]-N-(cyclopropylmethyl)-5H-pyrrolo[2,3-b]pyrazine-7-carboxamide]	0.448	5.43	322
C=CC(=O)N1CCC(Nc2cnc3[nH]cc(C(=O)NCc4ccccc4)c3n2)CC1 [Example 187, 2-[(1-acryloylpiperidin-4-yl)amino]-N-benzyl-5H-pyrrolo[2,3-b]pyrazine-7-carboxamide]	0.503	> 6	240
C=CC(=O)N1CCC(Nc2cnc3[nH]cc(C(=O)NCc4cccc(F)c4)c3n2)CC1 [Example 176, 2-[(1-acryloylpiperidin-4-yl)amino]-N-(3-fluorobenzyl)-5H-pyrrolo[2,3-b]pyrazine-7-carboxamide]	0.437	4.85	318
C=CC(=O)N1CCC(Oc2cnc3[nH]cc(C(=O)NC4CCCC4)c3n2)CC1 (racemic) [Example 204, Racemic-2-[(1-acryloylpiperidin-4-yl)oxy]-N-cyclopentyl-5H-pyrrolo[2,3-b]pyrazine-7-carboxamide]	0.272	> 6	1390
C=CC(=O)N1CCC(Nc2cnc3[nH]cc(C(=O)NCc4ccc(F)c(C#N)c4)c3n2)CC1 [Example 189, 2-[(1-acryloylpiperidin-4-yl)amino]-N-(3-cyano-4-fluorobenzyl)-5H-pyrrolo[2,3-b]pyrazine-7-carboxamide]	0.689	> 6	1140
C=CC(=O)N1C[C@@H](CC#N)C[C@@H](Nc2ncnc3[nH]ccc23)C1 (racemic) [Example 105, Cis-racemic-[1-acryloyl-5-(7H-pyrrolo[2,3-d]pyrimidin-4-ylamino)piperidin-3-yl]acetonitrile]	0.408	2.3	1070
C=CC(=O)N1C[C@@H](CC#N)C[C@@H](Nc2ncnc3[nH]ccc23)C1 (single isomer, unassigned) [Example 106]	0.125	1.87	287
C=CC(=O)N1CC[C@@H](Nc2cnc3[nH]cc(C(=O)NCC)c3n2)[C@@H](C)C1 (racemic) [Example 37, Cis-racemic-2-{[(3S,4R)-1-acryloyl-3-methylpiperidin-4-yl]amino}-N-ethyl-5H-pyrrolo[2,3-b]pyrazine-7-carboxamide]	0.375	5.08	1940
C=CC(=O)N1CC[C@@H](Oc2cnc3[nH]cc(C(=O)NCC)c3n2)C[C@@H]1C (racemic) [Example 77, Trans-racemic-2-{[1-acryloyl-2-methylpiperidin-4-yl]oxy}-N-ethyl-5H-pyrrolo[2,3-b]pyrazine-7-carboxamide]	0.702	> 5.34	2450
C=CC(=O)N1CC[C@@H](Oc2cnc3[nH]cc(C(=O)NCC)c3n2)[C@H](C)C1 (single isomer, unassigned) [Example 47]	1.18	1.8	3580

More lines, now with the values ahead:

IC50 (JAK3 enzyme) [nM]	half-life at 1 μM [1] [h]	IC50 [2] [nM]	Structure (SMILES)
0.313	5.52	263	C=CC(=O)N1CC[C@@H](Nc2cnc3[nH]cc(C(=O)N[C@H](C)COC)c3n2)[C@@H](OC)C1 [Example 331, 2-{[(3S,4R)-1-acryloyl-3-methoxypiperidin-4-yl]amino}-N-[(2R)-1-methoxypropan-2-yl]-5H-pyrrolo[2,3-b]pyrazine-7-carboxamide]
0.211	3.7	1070	C=CC(=O)N1CCC(Oc2cnc3[nH]cc(C(=O)NC(C)C4CC4)c3n2)CC1 (racemic) [Example 220, Racemic-2-[(1-acryloylpiperidin-4-yl)oxy]-N-(1-cyclopropylethyl)-5H-pyrrolo[2,3-b]pyrazine-7-carboxamide]
0.448	> 6	999	C=CC(=O)N1CC[C@@H](Nc2cnc3[nH]cc(C(=O)NCC(C)(F)F)c3n2)[C@@H](OC)C1 [Example 321, 2-{[(3S,4R)-1-acryloyl-3-methoxypiperidin-4-yl]amino}-N-(2,2-difluoropropyl)-5H-pyrrolo[2,3-b]pyrazine-7-carboxamide]
0.301	> 6	819	C=CC(=O)N1CC[C@H](Nc2cnc3[nH]cc(C(=O)NCC4CCCC4)c3n2)[C@H](OC)C1 [Example 284, 2-{[(3R,4S)-1-acryloyl-3-methoxypiperidin-4-yl]amino}-N-(cyclopentylmethyl)-5H-pyrrolo[2,3-b]pyrazine-7-carboxamide]
0.546	> 6	1040	C=CC(=O)N1CCN(c2cnc3[nH]cc(C(=O)N[C@H](C)COC)c3n2)CC1(C)C [Example 327]
0.609	4.45	> 10000	C=CC(=O)N1CCC(Oc2cnc3[nH]cc(C(=O)NC(C)(C)CC)c3n2)CC1 [Example 209, 2-[(1-acryloylpiperidin-4-yl)oxy]-N-(2-methylbutan-2-yl)-5H-pyrrolo[2,3-b]pyrazine-7-carboxamide]
0.418	4.3	1270	C=CC(=O)N1CCC(C)(Nc2cnc3[nH]cc(C(=O)NC4CCC4)c3n2)CC1 [Example 324, 2-[(1-acryloyl-4-methylpiperidin-4-yl)amino]-N-cyclobutyl-5H-pyrrolo[2,3-b]pyrazine-7-carboxamide]
0.24	3.12	402	C=CC(=O)N1CCN(c2cnc3[nH]cc(C(=O)N[C@H](CC)CC#N)c3n2)C[C@@H]1CC(C)C [Example 314, 2-[(3S)-4-acryloyl-3-(2-methylpropyl)piperazin-1-yl]-N-[(2R)-1-cyanobutan-2-yl]-5H-pyrrolo[2,3-b]pyrazine-7-carboxamide]
0.209	4.79	195	C=CC(=O)N1CCC(Oc2cnc3[nH]cc(C(=O)N[C@H](C)COC)c3n2)CC1 [Example 214, 2-[(1-acryloylpiperidin-4-yl)oxy]-N-[(2R)-1-methoxypropan-2-yl]-5H-pyrrolo[2,3-b]pyrazine-7-carboxamide]
